Key:
Pseudomonas aeruginosa = assay: Turbidity test of amikacin eluates for bactericidal activity; assay type: cell-based; conditions: amikacin eluates from constructs against Pseudomonas aeruginosa
Description: (§1) Eluates taken from constructs of these different types were tested for bactericidal activity in turbidity tests against appropriate strains of bacteria: amikacin eluates against Pseudomonas aeruginosa and vancomycin eluates against Staphylococcus aureus. Eluates were added to trypticase soy broth in a 1:10 dilution. Broth was then inoculated with bacteria and then incubated overnight at 37° C. Absorbance of these solutions (turbidity) was used as an indicator of bacterial growth. Percent inhibition of bacterial growth is calculated from these measurements.

Staphylococcus aureus = assay: Turbidity test of vancomycin eluates for bactericidal activity; assay type: cell-based; conditions: vancomycin eluates from constructs against Staphylococcus aureus
Description: as §1

SMILES | time up to which elution is inhibitory (Pseudomonas aeruginosa) | time up to which elution is inhibitory (Staphylococcus aureus)
NCC[C@H](O)C(=O)N[C@@H]1C[C@H](N)[C@@H](O[C@H]2O[C@H](CN)[C@@H](O)[C@H](O)[C@H]2O)[C@H](O)[C@H]1O[C@H]1O[C@H](CO)[C@@H](O)[C@H](N)[C@H]1O [amikacin] | up to 24 hours | –
CN[C@H](CC(C)C)C(=O)N[C@H]1C(=O)N[C@@H](CC(N)=O)C(=O)N[C@H]2C(=O)N[C@H]3C(=O)N[C@H](C(=O)N[C@H](C(=O)O)c4cc(O)cc(O)c4-c4cc3ccc4O)[C@H](O)c3ccc(c(Cl)c3)Oc3cc2cc(c3O[C@@H]2O[C@H](CO)[C@@H](O)[C@H](O)[C@H]2O[C@H]2C[C@](C)(N)[C@H](O)[C@H](C)O2)Oc2ccc(cc2Cl)[C@H]1O [vancomycin] | – | up to 48 hours

Reference: patent publication US20100266694A1, “Chitosan/Carbon Nanotube Composite Scaffolds for Drug Delivery” (priority 2009, published 2010)
